From article PMC6372542 (Frontiers in Pediatrics, 2019)
Where “and” joins values, the source holds several entries; their conditions need not be identical. Equal entries are not always repeated. Where two headings read alike, the source gives them in different places.

How the values were obtained:
[1] = Plasma concentrations of protease inhibitors, ritonavir and efavirenz (antiretroviral exposures); conditions: for AUC / Cmax: human, in vivo; for Clast: plasma, median (interquartile range), range for lopinavir, median (range) for efavirenz
Excerpt: (§1) Study procedures were standardized across multiple study arms. The single pharmacokinetic visit included a medication history, adherence survey, and a CYP2D6 phenotype assessment (the other psychotropic study medications were primarily metabolized by CYP 2D6). Participants with HIV had to be taking their antiretroviral medications consistently for at least 4 weeks prior to sampling. […] Plasma samples were drawn at pre-dose and 2, 4, 6, 12, and 24-h post-dose.
Plasma concentrations of primary protease inhibitors, ritonavir and efavirenz were measured at the University of California San Diego Pediatric Pharmacology Laboratory by validated reverse phase high performance liquid chromatography or mass spectrometry methods.

[2] = cited from earlier work; for half-life: adolescents, ref [17]
[3] = Non-compartmental plasma pharmacokinetics of sertraline and N-desmethylsertraline in HIV-infected and uninfected youth (IMPAACT P1080); conditions: for C0: pre-dose plasma; for CL/F: po, non-compartmental apparent oral clearance; for concentration: read-out: Norm-C0
Excerpt: International Maternal Pediatric Adolescent AIDS Clinical Trials Network (IMPAACT) P1080 was a multicenter, pilot study of psychiatric and antiretroviral medication concentrations in HIV-1-infected and uninfected youth.
as §1
Analytes and internal standard were extracted with 600 μL of acetonitrile from 200 μL of plasma, then eluted from a Gemini C18 column in under 4 min using acetonitrile/water/formic acid (85:15:0.1, v/v/v) as the mobile phase.
The area under the concentration vs. time curve from time 0–24 h post dose (AUC0−24) was estimated using the trapezoidal rule. Apparent oral clearance (CL/F), where F is bioavailability, was calculated as dose divided by AUC0−24. The apparent volume of distribution (V/F) was determined as CL/F divided by k, where k is the terminal slope of the log plasma concentration-time curve. The half-life (t1/2) was calculated as 0.693/k. All concentration data were normalized to dose (100 mg) and to weight (70 kg). Non-compartmental parameters were estimated with Phoenix® WinNonlin® (Certara L.P. (Pharsight), St. Louis, MO). Pharmacokinetic parameters were compared between HIV(–) and PI/r cohorts with Wilcoxon rank-sum tests, two-sided with significance set to 0.05. Statistical comparisons were not made with the EFV group due to the low enrollment/accrual in this cohort (n = 3).

[4] = Sertraline population pharmacokinetics (NONMEM, one-compartment model at steady-state); assay type: in vivo, human; conditions: for V/F / ka: typical population value, Estimate (% SE)
Method: A one-compartment model at steady-state with first-order absorption and elimination best described the data (ADVAN2 TRANS2, FOCE with interaction). A combined (additive and proportional) residual error model was used. Covariates were screened individually on each pharmacokinetic parameter (CL/F, V/F, and ka). For all models, goodness of fit were assessed with diagnostic plots. All covariates that improved model fit at p < 0.05 were included in the multivariate screen.

[5] = EFV cohort n = 3, median (minimum, maximum)
[6] = PI/r cohort n = 12, median (interquartile range)

With `COC(=O)N[C@H](C(=O)N[C@@H](Cc1ccccc1)[C@@H](O)CN(Cc1ccc(-c2ccccn2)cc1)NC(=O)[C@@H](NC(=O)OC)C(C)(C)C)C(C)(C)C` [Atazanavir] the AUC [1] was 27200 ng·h/mL, the Cmax [1] was 3800 ng/mL and the Clast [1] was 1.2 (0.9, 2.6) μg/mL.
In the case of `O=C1Nc2ccc(Cl)cc2[C@@](C#CC2CC2)(C(F)(F)F)O1` [Efavirenz], the AUC [1] is reported as 24500 ng·h/mL, the Cmax [1] is reported as 1300 ng/mL and the Clast [1] is reported as 1.3 (1.3, 3.4) μg/mL.
For `N[C@H]1CC[C@@H](c2ccc(Cl)c(Cl)c2)c2ccccc21` [N-desmethylsertraline], the elimination half-life ([2]; metabolite, ref [5]) is given as 62 to 104 h.
For `CC(C)c1nc(CN(C)C(=O)N[C@H](C(=O)N[C@@H](Cc2ccccc2)C[C@H](O)[C@H](Cc2ccccc2)NC(=O)OCc2cncs2)C(C)C)cs1` [Ritonavir], the AUC [1] was 4900 ng·h/mL, the Cmax [1] was 600 ng/mL and the Clast [1] was 0.2 (0.1, 0.4) μg/mL.
In the case of `CN[C@H]1CC[C@@H](c2ccc(Cl)c(Cl)c2)c2ccccc21` [Sertraline], the “sertraline exposures lower in EFV participants than HIV(–) and PI/r groups” value ([3]; EFV cohort n = 3) is reported as ~ 50%, the C24 ([3]; EFV cohort n = 3, 24 h post-dose, median (minimum, maximum)) is reported as 4.2 (2.9, 5.9) ng/mL and the Tmax [3, 5] is reported as 6 (4, 6) hr. The C0 [3, 5] was 6 ng/mL and 6.0 (3.0, 7.0) ng/mL, the “normalized trough concentrations, C0 and C24” value ([3]; HIV(-) and PI/r groups) was 18 to 33 ng/mL and the “sertraline exposure lower in the PI/r cohort than in HIV(–)” value ([3]; PI/r cohort compared to HIV(–)) was ~ 40% and 30–40%. The Tmax [3, 6] was 4 (4, 6) hr, the C0 [3, 6] was 10.0 (7.5, 15.9) ng/mL and the Tmax ([3]; human, in vivo) was 4 h. It also gave a Cmax ([3]; human, in vivo, 0.7 mg/kg, Cmax, EFV cohort n = 3, median (minimum, maximum)) of 13.2 ng/mL, a Cmax ([3]; human, in vivo, 0.9 mg/kg, Cmax, PI/r cohort n = 12, median (interquartile range)) of 34.3 ng/mL and a Cmax ([3]; human, in vivo, 1.3 mg/kg, Cmax, HIV(-) cohort n = 16, median (interquartile range)) of 46.7 ng/mL. For the same compound, the AUC(0-t) ([3]; human, in vivo, 100 mg, Norm-AUC0−24, EFV cohort n = 3, normalized to a 100 mg once daily dose and a weight of 70 kg, median (minimum, maximum)) was 473 ng·h/mL, the AUC(0-t) ([3]; human, in vivo, 100 mg, Norm-AUC0−24, HIV(-) cohort n = 16, normalized to a 100 mg once daily dose and a weight of 70 kg, median (interquartile range)) was 1180 ng·h/mL and the AUC(0-t) ([3]; human, in vivo, 100 mg, Norm-AUC0−24, PI/r cohort n = 12, normalized to a 100 mg once daily dose and a weight of 70 kg, median (interquartile range)) was 791 ng·h/mL. For the same compound, the concentration at 24 h ([3]; human, in vivo, 100 mg, Norm-C24, EFV cohort n = 3, normalized to 100 mg once daily and 70 kg, median (minimum, maximum)) was 12.8 ng/mL, the concentration at 24 h ([3]; human, in vivo, 100 mg, Norm-C24, HIV(-) cohort n = 16, normalized to 100 mg once daily and 70 kg, median (interquartile range)) was 32.7 ng/mL and the concentration at 24 h ([3]; human, in vivo, 100 mg, Norm-C24, PI/r cohort n = 12, normalized to 100 mg once daily and 70 kg, median (interquartile range)) was 20.1 ng/mL. It also gave a Cmax ([3]; human, in vivo, 100 mg, Norm-Cmax, EFV cohort n = 3, normalized to 100 mg once daily and 70 kg, median (minimum, maximum)) of 28.8 ng/mL, a Cmax ([3]; human, in vivo, 100 mg, Norm-Cmax, HIV(-) cohort n = 16, normalized to 100 mg once daily and 70 kg, median (interquartile range)) of 78.3 ng/mL and a Cmax ([3]; human, in vivo, 100 mg, Norm-Cmax, PI/r cohort n = 12, normalized to 100 mg once daily and 70 kg, median (interquartile range)) of 46.9 ng/mL. For the same compound, the AUC(0-t) ([3]; human, in vivo, AUC0−24, EFV cohort n = 3, plasma, steady state, median (minimum, maximum)) was 145 ng·h/mL, the AUC(0-t) ([3]; human, in vivo, AUC0−24, HIV(-) cohort n = 16, plasma, steady state, median (interquartile range)) was 652 ng·h/mL and the AUC(0-t) ([3]; human, in vivo, AUC0−24, PI/r cohort n = 12, plasma, steady state, median (interquartile range)) was 486 ng·h/mL. For the same compound, the concentration at 24 h ([3]; human, in vivo, C24, EFV cohort n = 3, 24 h post-dose, median (minimum, maximum)) was 4.2 ng/mL, the concentration at 24 h ([3]; human, in vivo, C24, HIV(-) cohort n = 16, 24 h post-dose, median (interquartile range)) was 17.5 ng/mL and the concentration at 24 h ([3]; human, in vivo, C24, PI/r cohort n = 12, 24 h post-dose, median (interquartile range)) was 12.6 ng/mL. It also gave a half-life ([3]; human, in vivo, T1/2, EFV cohort n = 3, median (minimum, maximum)) of 11.1 h, a half-life ([3]; human, in vivo, T1/2, HIV(-) cohort n = 16, median (interquartile range)) of 26.4 h and a half-life ([3]; human, in vivo, T1/2, PI/r cohort n = 12, median (interquartile range)) of 18.1 h. For the same compound, the CL/F ([3]; human, in vivo, EFV cohort n = 3, median (minimum, maximum)) was 75 mL/min/kg, the CL/F ([3]; human, in vivo, HIV(-) cohort n = 16, median (interquartile range)) was 23.3 mL/min/kg and the CL/F ([3]; human, in vivo, PI/r cohort n = 12, median (interquartile range)) was 26.7 mL/min/kg. The concentration ([3]; EFV cohort n = 3, normalized to 100 mg once daily and 70 kg, median (minimum, maximum)) was 13.1 ng/mL, the concentration ([3]; HIV(-) cohort n = 16, normalized to 100 mg once daily and 70 kg, median (interquartile range)) was 33.3 ng/mL and the concentration ([3]; PI/r cohort n = 12, normalized to 100 mg once daily and 70 kg, median (interquartile range)) was 17.8 ng/mL. The “clearance higher than in geriatric population pharmacokinetic study” value ([4]; 115 L/h vs 83.1 L/h in geriatric patients with Alzheimer's Disease) was 38%, the V/F ([4]; base model) was 53.8 L/kg and the ka ([4]; base model) was 0.45 1/h and 0.45 (16.2) 1/h. For the same compound, the V/F ([4]; final model) was 44.6 L/kg, the ka ([4]; final model) was 0.42 1/h and 0.42 (14.7) 1/h and the clearance ([4]; human, plasma, oral, population model, for a typical 70 kg patient, read-out: estimated clearance (converted)) was 1920 mL/min. For the same compound, the half-life ([2]; single dose) was 26.7 h, the half-life ([2]; steady-state) was 15.3 h and the elimination half-life ([2]; adults, children, and adolescents, ref [5]) was “about 27 h”. For the same compound, the “decrease of sertraline exposure (AUC0−24) by efavirenz” value ([2]; adults, concomitant efavirenz, ref [13]) was ~ 40%, the “AUC0−24” value ([2]; after multiple dosing in prior adult studies, normalized to a 100 mg dose, ref [20]) was 1038 to 1532 ng·h/mL and the half-life at steady-state ([2]; lower end of dose range of 50–200 mg, ref [15], [17]) was 15.3 h. The “sertraline exposure (AUC0−24 and Cmax) lower in children and adolescents” value ([2]; plasma concentration adjusted for weight, compared to adults, ref [5], [9]) was ~ 22%, the clearance ([2]; population pharmacokinetic study of geriatric patients (median age = 76 years) with Alzheimer's Disease, ref [23]) was 83.1 L/h and the “AUC0−24” value ([2]; previous pediatric studies, normalized to 100 mg dose and 70 kg weight, ref [15], [17]) was 883 to 2,535 ng·h/mL. The median sertraline trough ([2]; therapeutic drug monitoring program, 100 mg daily doses, IQR 12–30 ng/mL, ref [21]) was 20 ng/mL and the half-life at steady-state ([2]; upper end of dose range of 50–200 mg, ref [15], [17]) was 27.2 h.
